As a reminder, the IC50 is the concentration at which inhibition is half-maximal.

One data set deals with HeLa. Briefly: CCK-8 cytotoxicity assay, HeLa. The class given is cell-based. The conditions noted are these: Homo sapiens, CCK-8, 72 h treatment. How it is done: (§1) The CCK-8 assay was used to determine cell viability. Test samples were dissolved in dimethyl sulfoxide (DMSO) to make stock solutions and further diluted in culture medium for assays. Human cancer cell lines (HeLa, PANC-1, and A549) were cultured in RPMI 1640, DMEM or DMEM/F12 (1:1) medium containing 10% fetal bovine serum. Cells were maintained at 37 °C in a humidified environment under 5% CO2. Cell proliferation assays were performed as previously described. Briefly, each cell line was seeded in a 96-well tissue culture plate at a predetermined density in 180 µL of complete medium, attached overnight and treated with test compound for 72 h. Then the medium was discarded and replaced with 10% CCK-8 in complete medium and the plates incubated for another 2 h. OD450 was measured with a SpectraMAX 190 spectrophotometer (MDS, Sunnyvale, CA, USA). Background absorbance was subtracted for all wells. Inhibition rate (IR) was determined. IR (%) = (ODDMSO − ODcompound)/ODDMSO × 100%.
(In general: Tetrazolium assays rely on reduction of a dye to a coloured formazan, in cell work by metabolically active cells.)

The next data set concerns A549. Briefly: CCK-8 cytotoxicity assay, A549. The class given is cell-based. The conditions noted are these: Homo sapiens, CCK-8, 72 h treatment. As to the method:
as §1

In another data set the test system is PANC-1. Briefly: CCK-8 cytotoxicity assay, PANC-1. The class given is cell-based. The conditions noted are these: Homo sapiens, CCK-8, 72 h treatment. As to the method:
as §1

Data set [1] in a line: CCK-8 cytotoxicity assay, immortalized HL7702 normal liver cells. The class given is cell-based. As to conditions: immortalized HL-7702 normal liver cells; CCK-8, 72 h treatment; normal human liver cells, selectivity.
A further data set concerns HeLa, PANC-1, and A549. Briefly: Cytotoxicity against cell line panel (summary statements). The conditions noted are these: Homo sapiens; summary of Table 2; cell line not specified; read-out: Inhibition on cell viability, IC50. It counts as cell-based. As to the method: as §1
The test system of a further data set is HeLa cells. Description: Flow cytometry analysis of apoptosis and cell cycle arrest (PI staining). The class given is cell-based, human. As to conditions: 24 h, FACS. How it is done: Figure 3 Effects of 1, 5, 16, and 17 on cell cycle and apoptosis. HeLa cells were treated with indicated chemicals. After 24 h of treatment, the cells were harvested, fixed in 70% EtOH, and stained with PI. The cell cycle and apoptosis rate were detected by FACS. Etoposide is used as positive control; (A) Cell cycle attribution of HeLa cells under different concentration treatment; (B) Apoptotic rates were acquired from Sub-G1 fraction from A.
Hypodiploid DNA and cell cycle arrest were evaluated as described previously. Briefly, after treatment of HeLa cancer cells with vehicle (0.1% DMSO) or test compound at the indicated concentrations and times, the cells were harvested by trypsinization and fixed with 70% (v/v) alcohol at 4 °C for 30 min. After washing with PBS, RNase (10 µg/mL) was added and incubated for 15 min at 37 °C to eliminate RNA interference. The cells were then treated with propidium iodide (PI) for another 30 min. The cells were washed, and the DNA content determined using FACSCalibur.
In general terms: In flow cytometry, cells or beads pass a laser one at a time.

For data set [2], the system named is HeLa cells (PARP, caspase-3, LC3B, p62). Briefly: Western blot of apoptosis and autophagy related proteins. The class given is cell-based, human. The conditions noted are these: 24 h. How it is done: Figure 4 Effects of 1, 5, 16, and 17 on apoptosis and autophagy related proteins. Western blots of p62, LC3B, PARP, Caspase 3, and GAPDH of HeLa cells after 24 h treatment with 1, 5, 16, and 17. Etoposide was used as positive control.
Cell lysate was prepared in RIPA buffer and quantified by the bicinchoninic acid (BCA) method (Pierce, Rockford, IL, USA). Thirty micrograms of protein per sample was loaded onto a 4%~12% NuPAGE® Novex SDS gel. Protein was transferred using an iBlot® dry blotting device onto nitrocellulose membranes. After blocking nonspecific binding with TBS/Tween20 (0.1%) (TBS/T) containing 5% non-fat milk for 1 h at room temperature, the membrane was incubated in LC3B (Sigma, L7543), SQSTM1/p62 (MBL, PM045), PARP (CST #9542P, Cell Signaling Technology, Shanghai, China), or caspase-3 (CST #9662P, Cell Signaling Technology) (1:1000 in TBS/T containing 3% bovine serum albumin (BSA) in all cases) with gentle shaking at 4 °C overnight. Membranes were washed three times with TBS/T to remove unbound antibody and then incubated with secondary antibody (HRP-conjugated goat anti-mouse IgG or goat anti-rabbit IgG (1:5000) for 1 h at room temperature. Protein bands were visualized with an enhanced chemiluminescence kit (ECL, Pierce).

Data set [3] has as its system HeLa cells stably expressing GFP-LC3. Description: GFP-LC3 puncta imaging. It counts as cell-based, human. The conditions noted are these: HeLa-GFP-LC3 cells, 10, 20 µM, 24 h, confocal images. How it is done: Figure 5 Xanthone V1 (17) induces GFP-LC3 puncta formation in HeLa cells. HeLa cells stably expressing GFP-LC3 were seeded in a 96-well dish and treated with 10, 20 µM 17 for 24 h. (A) The number of GFP-LC3 puncta in each samples were calculated by Columbus software. The number was averaged of cells from three wells; (B) The images of GFP-LC3 puncta after 10, 20 µM treatment Xanthone V1 were acquired by an Opera (GFP ex and em) with a 40×-H2O objective. Left Panel: the original GFP-LC3 puncta; Right panel: the spots were auto-analyzed by Columbus software.
HeLa cells stably expressing GFP-LC3 were generated as previously described. Briefly, HeLa cells were transfected with pEGFP-LC3 plasmid using Lipofectamine 2000 (11668-019, Invitrogen, Carlsbad, CA, USA). One day after transfection, the cells were treated with 800 μg/mL G418 for 7 days. Surviving cells (termed HeLa-GFP-LC3 below) were continually cultured with 800 μg/mL G418. HeLa-GFP-LC3 cells were seeded in a 96-well plate overnight (clear bottom, black, Perkin-Elmer, Waltham, MA, USA). The cells were then treated with test compounds in triplicate. After 48 h, the cells were fixed with 4% paraformaldehyde and washed three times with PBS. […] The data were analyzed using Columbus 2.3 software (Perkin-Elmer). To quantify GFP-LC3 spots, the following procedures were performed: 1. […]

On to `CC(C)=CCc1c(O)c(O)c2oc3c(CC=C(C)C)c(O)ccc3c(=O)c2c1O` [Compound 1, 1,3,4,6-tetrahydroxy-2,5-di(3-methylbut-2-enyl)-xanthone], for which the IC50 in the data set with HeLa is 8.09 ± 0.78 µM; with A549 it was 12.6 ± 4.3 µM; with PANC-1 it was 14.8 ± 8.68 µM; in the data set on HeLa, PANC-1, and A549, < 10 µM. Also, the IC50 at 72 h in data set [1] came to 11 ± 4.36 µM. Further, in the data set with HeLa cells, the “Cell cycle arrest phase” value was “at the G2/M phase”.
`CC(C)=CCc1c2c(c3oc4c(O)c(O)ccc4c(=O)c3c1O)C=CC(C)(C)O2` [Compound 5, 1,5,6-trihydroxy-2-prenyl-6′,6′-dimethyl-2H-pyrano(2′,3′:3,4)xanthone]: the concentration for half-maximal inhibition (IC50) with HeLa is 7.06 ± 0.71 µM; in the data set on A549, 8.19 ± 0.99 µM; in the data set on PANC-1, 9.32 ± 4.58 µM; in the data set on HeLa, PANC-1, and A549, < 10 µM. In data set [1], this molecule gave an IC50 at 72 h of 10.5 ± 4.12 µM. The “Cell cycle arrest phase” value in the data set on HeLa cells is listed as “cell cycle arrest at the S phase in a dose-dependent fashion”. For the same molecule, the PARP cleavage result in data set [2] is “activated PARP cleavage”.
Take `C=C(C)C(O)C[C@H](C[C@@]12C[C@@H](CC=C(C)C)C(C)(C)[C@@](CC=C(C)C)(C(=O)C(C(=O)c3ccc(O)c(O)c3)=C1O)C2=O)C(=C)C` (stereo partly shown) [Compound 8, garcimultiflorone E]: the half-inhibitory concentration (IC50) in the data set on HeLa was 17.6 ± 1.45 µM; with A549, 7.57 ± 0.57 µM; in the data set on PANC-1, 17.7 ± 1.56 µM; in the data set on HeLa, PANC-1, and A549 it was < 10 µM. The same molecule gave a half-maximal inhibitory concentration (IC50) at 72 h in data set [1] of 7.34 ± 0.65 µM.
Regarding `C=C(C)C(CC=C(C)C)C[C@@]12C[C@@H](CC=C(C)C)C(C)(C)[C@@](CC=C(C)C)(C1=O)c1oc3cc(O)c(O)cc3c(=O)c1C2=O` (stereo partly shown) [Compound 15, symphonone H], the half-maximal inhibitory concentration (IC50) is 9.83 ± 0.61 µM in the data set on HeLa; 6.27 ± 0.71 µM in the data set on A549; 11.2 ± 4.89 µM with PANC-1; < 10 µM with HeLa, PANC-1, and A549. The molecule also registered an IC50 at 72 h in data set [1] of 3.96 ± 2.38 µM.
With `CC1(C)C=Cc2c(cc3oc4c(O)c(O)ccc4c(=O)c3c2O)O1` [Compound 16, jacareubin], the IC50 in the data set with HeLa is 1.09 ± 0.67 µM; in the data set with A549, 6.9 ± 2.23 µM; with PANC-1 it was 10.1 ± 7.91 µM; in the data set with HeLa, PANC-1, and A549 it was < 10 µM. In data set [1], this molecule had a 50% inhibitory concentration (IC50) at 72 h of 5.5 ± 1.79 µM. For the same molecule, in the data set on HeLa cells, the “Cell cycle arrest phase” value was “at the G2/M phase”. The “Induction of apoptosis (Sub-G1 fraction)” value in the data set with HeLa cells was “induced apoptosis”. Besides, the PARP cleavage entry in data set [2] is “activated PARP cleavage”.
In turn, `CC(C)=CCc1c2c(c(O)c3c(=O)c4ccc(O)c(O)c4oc13)C=CC(C)(C)O2` [Compound 17, xanthone V1] gave an IC50 in the data set on HeLa of 4.71 ± 0.52 µM. The molecule also had a half-inhibitory concentration (IC50) in the data set on A549 of 11.8 ± 6.29 µM. The molecule also returned a 50% inhibitory concentration (IC50) in the data set on PANC-1 of 6.56 ± 2.55 µM. This molecule also returned a 50% inhibitory concentration (IC50) at 72 h in data set [1] of 9.5 ± 3.74 µM. Also, the IC50 with HeLa, PANC-1, and A549 was < 10 µM. For the same molecule, in the data set with HeLa cells, the “Cell cycle arrest phase” value was “at the G1 phase” and the “Induction of apoptosis (Sub-G1 fraction)” value is reported as “induced apoptosis”. For the same molecule, in data set [2], the “Conversion of LC3-I to LC3-II” value is “increased the conversion of LC3-I to LC3-II”, the PARP cleavage entry was “activated PARP cleavage” and the p62 level entry is “p62 reduction”. For the same molecule, the GFP-LC3 puncta formation result in data set [3] was “an increase in GFP-LC3 puncta was observed”.
Turning to `COc1cc([C@@H]2c3cc4c(cc3[C@@H](O[C@@H]3O[C@@H]5CO[C@@H](C)O[C@H]5[C@H](O)[C@H]3O)[C@H]3COC(=O)[C@H]23)OCO4)cc(OC)c1O` [Etoposide, reference compound], the IC50 turned out to be 2.91 ± 0.16 µM with HeLa, 1.31 ± 0.09 µM with A549 and 22.8 ± 1.93 µM in the data set with PANC-1. This molecule also had an IC50 at 72 h in data set [1] of 1.42 ± 0.13 µM.

The values are drawn from article PMC6272390, “Xanthones from the Leaves of Garcinia cowa Induce Cell Cycle Arrest, Apoptosis, and Autophagy in Cancer Cells” (Molecules, 2015).
